{
  "source": "the kinase profiling compilation of Christmann-Franck et al. (2016)",
  "test_in_all_cases": "KINOMEscan competition binding",
  "settings_in_all_cases": "compound 10.0 µM",
  "key": {"FGFR3 (human)": {"biological_target": "FGFR3 (human) (UniProt P22607)"}, "EPHA8 (human)": {"biological_target": "EPHA8 (human) (UniProt P29322)"}, "ERBB4 (human)": {"biological_target": "ERBB4 (human) (UniProt Q15303)"}, "DAPK2 (human)": {"biological_target": "DAPK2 (human) (UniProt Q9UIK4)", "sequence (Q9UIK4 whole entry, looked up)": "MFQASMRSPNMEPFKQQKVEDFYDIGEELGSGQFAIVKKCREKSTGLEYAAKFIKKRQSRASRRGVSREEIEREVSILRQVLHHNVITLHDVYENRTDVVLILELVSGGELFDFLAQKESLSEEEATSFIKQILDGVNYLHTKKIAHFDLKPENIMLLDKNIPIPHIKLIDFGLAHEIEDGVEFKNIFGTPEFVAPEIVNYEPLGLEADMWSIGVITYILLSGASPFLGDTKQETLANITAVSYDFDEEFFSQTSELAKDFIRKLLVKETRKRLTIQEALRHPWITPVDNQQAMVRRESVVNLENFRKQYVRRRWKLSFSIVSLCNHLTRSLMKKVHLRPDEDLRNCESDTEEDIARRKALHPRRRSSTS"}, "CSNK1G1 (human)": {"biological_target": "CSNK1G1 (human) (UniProt Q9HCP0)"}, "CDKL2 (human)": {"biological_target": "CDKL2 (human) (UniProt Q92772)"}, "CASK (human)": {"biological_target": "CASK (human) (UniProt O14936)", "sequence (O14936 whole entry, looked up)": "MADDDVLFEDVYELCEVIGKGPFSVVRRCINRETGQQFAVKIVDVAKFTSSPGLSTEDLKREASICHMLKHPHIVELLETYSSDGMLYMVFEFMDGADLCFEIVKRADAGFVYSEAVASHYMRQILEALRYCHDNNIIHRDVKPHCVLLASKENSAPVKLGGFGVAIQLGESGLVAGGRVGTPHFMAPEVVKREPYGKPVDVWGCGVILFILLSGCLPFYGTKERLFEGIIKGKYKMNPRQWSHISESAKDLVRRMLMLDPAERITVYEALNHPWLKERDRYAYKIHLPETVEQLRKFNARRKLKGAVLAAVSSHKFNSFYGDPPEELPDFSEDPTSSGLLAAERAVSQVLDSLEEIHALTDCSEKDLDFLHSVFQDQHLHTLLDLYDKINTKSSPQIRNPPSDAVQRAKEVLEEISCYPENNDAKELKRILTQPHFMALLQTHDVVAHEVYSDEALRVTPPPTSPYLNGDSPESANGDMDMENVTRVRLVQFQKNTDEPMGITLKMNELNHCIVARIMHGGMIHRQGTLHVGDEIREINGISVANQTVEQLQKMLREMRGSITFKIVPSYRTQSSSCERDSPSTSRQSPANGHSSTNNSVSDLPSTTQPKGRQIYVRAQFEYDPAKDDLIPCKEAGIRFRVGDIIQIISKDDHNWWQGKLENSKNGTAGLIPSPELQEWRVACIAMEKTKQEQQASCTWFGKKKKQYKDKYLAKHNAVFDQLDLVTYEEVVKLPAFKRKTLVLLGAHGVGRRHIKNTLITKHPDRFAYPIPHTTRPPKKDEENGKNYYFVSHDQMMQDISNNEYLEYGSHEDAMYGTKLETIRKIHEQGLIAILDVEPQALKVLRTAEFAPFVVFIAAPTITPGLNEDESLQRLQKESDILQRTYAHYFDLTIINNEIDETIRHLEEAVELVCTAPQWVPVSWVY"}, "IGF1R (human)": {"biological_target": "IGF1R (human) (UniProt P08069)"}, "CDK14 (human)": {"biological_target": "CDK14 (human) (UniProt O94921)"}, "MERTK (human)": {"biological_target": "MERTK (human) (UniProt Q12866)"}, "PIK3CB (human)": {"biological_target": "PIK3CB (human) (UniProt P42338)"}, "PIK3C2B (human)": {"biological_target": "PIK3C2B (human) (UniProt O00750)"}, "CSNK1G3 (human)": {"biological_target": "CSNK1G3 (human) (UniProt Q9Y6M4)"}, "CSNK1E (human)": {"biological_target": "CSNK1E (human) (UniProt P49674)"}, "TESK1 (human)": {"biological_target": "TESK1 (human) (UniProt Q15569)"}, "ACVR2B (human)": {"biological_target": "ACVR2B (human) (UniProt Q13705)"}, "MINK1 (human)": {"biological_target": "MINK1 (human) (UniProt Q8N4C8)"}, "TLK2 (human)": {"biological_target": "TLK2 (human) (UniProt Q86UE8)"}, "MARK2 (human)": {"biological_target": "MARK2 (human) (UniProt Q7KZI7)"}, "ERBB2 (human)": {"biological_target": "ERBB2 (human) (UniProt P04626)", "sequence (P04626 whole entry, looked up)": "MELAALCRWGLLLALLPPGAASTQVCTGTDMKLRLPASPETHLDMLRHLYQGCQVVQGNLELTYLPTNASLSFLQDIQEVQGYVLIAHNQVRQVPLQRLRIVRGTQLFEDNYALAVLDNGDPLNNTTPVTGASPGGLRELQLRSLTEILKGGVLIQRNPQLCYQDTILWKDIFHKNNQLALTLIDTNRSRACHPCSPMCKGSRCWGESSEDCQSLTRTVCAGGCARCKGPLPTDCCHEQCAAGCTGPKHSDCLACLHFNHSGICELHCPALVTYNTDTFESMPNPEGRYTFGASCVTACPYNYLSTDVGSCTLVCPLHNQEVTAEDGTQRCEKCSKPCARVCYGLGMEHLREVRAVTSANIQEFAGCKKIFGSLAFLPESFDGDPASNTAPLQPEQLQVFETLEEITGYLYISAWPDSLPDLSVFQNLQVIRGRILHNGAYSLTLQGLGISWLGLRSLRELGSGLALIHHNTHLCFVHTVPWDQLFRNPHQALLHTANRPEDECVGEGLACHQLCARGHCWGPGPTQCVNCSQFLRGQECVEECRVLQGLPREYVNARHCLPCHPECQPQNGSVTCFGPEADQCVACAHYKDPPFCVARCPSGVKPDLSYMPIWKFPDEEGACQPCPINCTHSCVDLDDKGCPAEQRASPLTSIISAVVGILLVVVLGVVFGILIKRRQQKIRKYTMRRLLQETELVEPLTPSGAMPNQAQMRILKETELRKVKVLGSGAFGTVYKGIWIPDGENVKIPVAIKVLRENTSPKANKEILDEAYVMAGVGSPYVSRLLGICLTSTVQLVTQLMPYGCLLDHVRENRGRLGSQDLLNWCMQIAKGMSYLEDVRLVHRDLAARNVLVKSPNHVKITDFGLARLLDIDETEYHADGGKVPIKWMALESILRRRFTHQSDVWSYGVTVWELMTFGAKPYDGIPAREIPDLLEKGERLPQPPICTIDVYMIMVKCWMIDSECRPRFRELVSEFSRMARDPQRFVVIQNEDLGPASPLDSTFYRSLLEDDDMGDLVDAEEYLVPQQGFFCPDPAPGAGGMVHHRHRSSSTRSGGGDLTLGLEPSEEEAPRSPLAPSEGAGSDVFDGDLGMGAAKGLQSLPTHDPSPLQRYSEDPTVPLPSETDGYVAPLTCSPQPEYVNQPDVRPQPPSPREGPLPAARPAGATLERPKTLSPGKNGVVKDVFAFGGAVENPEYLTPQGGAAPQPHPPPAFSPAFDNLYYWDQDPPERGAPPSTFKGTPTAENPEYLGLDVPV"}, "PRPF4B (human)": {"biological_target": "PRPF4B (human) (UniProt Q13523)"}, "RIOK2 (human)": {"biological_target": "RIOK2 (human) (UniProt Q9BVS4)"}, "DYRK2 (human)": {"biological_target": "DYRK2 (human) (UniProt Q92630)"}, "AXL (human)": {"biological_target": "AXL (human) (UniProt P30530)"}, "PRKAA1 (human)": {"biological_target": "PRKAA1 (human) (UniProt Q13131)", "sequence (Q13131 whole entry, looked up)": "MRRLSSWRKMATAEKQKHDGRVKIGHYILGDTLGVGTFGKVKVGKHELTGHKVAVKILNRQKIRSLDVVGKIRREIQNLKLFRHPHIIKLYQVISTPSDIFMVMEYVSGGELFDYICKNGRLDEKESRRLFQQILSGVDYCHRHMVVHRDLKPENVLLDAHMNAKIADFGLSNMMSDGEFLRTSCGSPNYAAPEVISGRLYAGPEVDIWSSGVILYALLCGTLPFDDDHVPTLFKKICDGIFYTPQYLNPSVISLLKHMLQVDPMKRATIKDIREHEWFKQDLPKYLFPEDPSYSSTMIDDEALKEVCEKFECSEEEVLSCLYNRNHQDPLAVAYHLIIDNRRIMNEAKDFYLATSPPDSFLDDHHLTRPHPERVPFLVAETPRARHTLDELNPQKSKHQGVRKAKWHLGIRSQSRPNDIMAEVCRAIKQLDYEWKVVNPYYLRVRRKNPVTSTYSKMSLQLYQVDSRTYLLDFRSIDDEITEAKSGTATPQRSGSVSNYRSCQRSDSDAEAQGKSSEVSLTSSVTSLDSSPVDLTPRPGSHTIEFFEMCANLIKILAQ"}, "MAPK11 (human)": {"biological_target": "MAPK11 (human) (UniProt Q15759)"}, "LYN (human)": {"biological_target": "LYN (human) (UniProt P07948)"}, "PAK2 (human)": {"biological_target": "PAK2 (human) (UniProt Q13177)", "sequence (Q13177 whole entry, looked up)": "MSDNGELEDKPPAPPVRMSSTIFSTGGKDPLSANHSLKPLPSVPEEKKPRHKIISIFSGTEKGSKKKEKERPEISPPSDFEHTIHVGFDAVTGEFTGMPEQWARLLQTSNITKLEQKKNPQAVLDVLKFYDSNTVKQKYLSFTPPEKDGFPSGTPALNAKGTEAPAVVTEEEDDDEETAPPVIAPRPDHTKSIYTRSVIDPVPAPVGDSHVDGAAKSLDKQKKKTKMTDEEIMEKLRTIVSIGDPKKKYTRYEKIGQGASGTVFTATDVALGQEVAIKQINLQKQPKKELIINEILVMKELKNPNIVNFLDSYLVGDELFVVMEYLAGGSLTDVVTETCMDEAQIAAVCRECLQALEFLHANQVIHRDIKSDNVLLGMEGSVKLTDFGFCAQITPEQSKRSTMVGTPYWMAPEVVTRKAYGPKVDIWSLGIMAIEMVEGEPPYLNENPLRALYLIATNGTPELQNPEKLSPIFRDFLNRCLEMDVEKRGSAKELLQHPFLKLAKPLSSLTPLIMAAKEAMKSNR"}, "RET (human)": {"biological_target": "RET (human) (UniProt P07949)"}, "CDC42BPA (human)": {"biological_target": "CDC42BPA (human) (UniProt Q5VT25)"}, "MAP3K11 (human)": {"biological_target": "MAP3K11 (human) (UniProt Q16584)"}, "OXSR1 (human)": {"biological_target": "OXSR1 (human) (UniProt O95747)"}, "FER (human)": {"biological_target": "FER (human) (UniProt P16591)"}, "EPHB2 (human)": {"biological_target": "EPHB2 (human) (UniProt P29323)"}, "CSNK1D (human)": {"biological_target": "CSNK1D (human) (UniProt P48730)"}, "VRK2 (human)": {"biological_target": "VRK2 (human) (UniProt Q86Y07)"}, "INSRR (human)": {"biological_target": "INSRR (human) (UniProt P14616)", "sequence (P14616 whole entry, looked up)": "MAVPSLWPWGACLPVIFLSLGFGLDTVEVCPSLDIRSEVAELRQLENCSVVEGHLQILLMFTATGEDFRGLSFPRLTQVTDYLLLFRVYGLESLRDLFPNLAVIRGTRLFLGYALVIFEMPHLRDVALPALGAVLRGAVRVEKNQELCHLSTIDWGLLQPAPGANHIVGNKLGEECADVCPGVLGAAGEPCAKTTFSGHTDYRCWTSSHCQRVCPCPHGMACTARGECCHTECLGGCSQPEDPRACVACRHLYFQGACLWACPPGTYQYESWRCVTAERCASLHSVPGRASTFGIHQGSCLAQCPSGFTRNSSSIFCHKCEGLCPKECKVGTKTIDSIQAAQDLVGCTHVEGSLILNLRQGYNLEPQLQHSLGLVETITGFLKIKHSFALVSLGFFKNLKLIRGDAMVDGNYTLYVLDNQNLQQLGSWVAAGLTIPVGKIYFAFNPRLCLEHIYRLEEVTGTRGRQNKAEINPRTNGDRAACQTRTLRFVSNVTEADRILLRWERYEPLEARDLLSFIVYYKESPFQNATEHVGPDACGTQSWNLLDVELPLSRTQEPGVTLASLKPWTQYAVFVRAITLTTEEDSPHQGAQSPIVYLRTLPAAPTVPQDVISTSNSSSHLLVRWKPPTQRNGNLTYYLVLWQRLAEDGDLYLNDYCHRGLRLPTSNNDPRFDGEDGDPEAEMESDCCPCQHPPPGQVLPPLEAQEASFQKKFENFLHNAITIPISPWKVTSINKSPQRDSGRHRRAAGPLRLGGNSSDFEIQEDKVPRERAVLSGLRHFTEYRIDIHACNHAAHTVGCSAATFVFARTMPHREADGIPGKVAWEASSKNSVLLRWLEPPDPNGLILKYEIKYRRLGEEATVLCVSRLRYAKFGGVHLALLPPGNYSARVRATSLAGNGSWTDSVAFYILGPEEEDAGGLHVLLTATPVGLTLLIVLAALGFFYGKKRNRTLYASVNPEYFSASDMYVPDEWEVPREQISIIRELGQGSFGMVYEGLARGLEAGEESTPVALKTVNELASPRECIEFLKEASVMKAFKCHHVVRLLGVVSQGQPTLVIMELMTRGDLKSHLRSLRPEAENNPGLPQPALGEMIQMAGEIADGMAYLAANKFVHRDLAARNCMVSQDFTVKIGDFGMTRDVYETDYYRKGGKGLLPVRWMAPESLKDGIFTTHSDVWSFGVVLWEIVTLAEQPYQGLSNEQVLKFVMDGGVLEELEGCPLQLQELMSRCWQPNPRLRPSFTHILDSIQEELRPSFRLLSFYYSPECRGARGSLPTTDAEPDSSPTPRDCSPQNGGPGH"}, "NLK (human)": {"biological_target": "NLK (human) (UniProt Q9UBE8)"}, "STK33 (human)": {"biological_target": "STK33 (human) (UniProt Q9BYT3)"}},
  "data": [
    {"smiles": "COc1cc2ncn(-c3cc(OCc4ccccc4C(F)(F)F)c(C(N)=O)s3)c2cc1OC", "values": [
      {"measurement": "kinase still bound, per cent of control", "setting": "FGFR3 (human)", "result": 20, "unit": "%"},
      {"measurement": "kinase still bound, per cent of control", "setting": "EPHA8 (human)", "result": 74, "unit": "%"},
      {"measurement": "kinase still bound, per cent of control", "setting": "ERBB4 (human)", "result": 80, "unit": "%"},
      {"measurement": "kinase still bound, per cent of control", "setting": "DAPK2 (human)", "result": 36, "unit": "%"},
      {"measurement": "kinase still bound, per cent of control", "setting": "CSNK1G1 (human)", "result": 86, "unit": "%"},
      {"measurement": "kinase still bound, per cent of control", "setting": "CDKL2 (human)", "result": 90, "unit": "%"},
      {"measurement": "kinase still bound, per cent of control", "setting": "CASK (human)", "result": 93, "unit": "%"},
      {"measurement": "kinase still bound, per cent of control", "setting": "IGF1R (human)", "result": 100, "unit": "%"},
      {"measurement": "kinase still bound, per cent of control", "setting": "CDK14 (human)", "result": 90, "unit": "%"},
      {"measurement": "kinase still bound, per cent of control", "setting": "MERTK (human)", "result": 7, "unit": "%"},
      {"measurement": "kinase still bound, per cent of control", "setting": "PIK3CB (human)", "result": 54, "unit": "%"},
      {"measurement": "kinase still bound, per cent of control", "setting": "PIK3C2B (human)", "result": 63, "unit": "%"},
      {"measurement": "kinase still bound, per cent of control", "setting": "CSNK1G3 (human)", "result": 100, "unit": "%"},
      {"measurement": "kinase still bound, per cent of control", "setting": "CSNK1E (human)", "result": 77, "unit": "%"},
      {"measurement": "kinase still bound, per cent of control", "setting": "TESK1 (human)", "result": 73, "unit": "%"},
      {"measurement": "kinase still bound, per cent of control", "setting": "ACVR2B (human)", "result": 58, "unit": "%"},
      {"measurement": "kinase still bound, per cent of control", "setting": "MINK1 (human)", "result": 63, "unit": "%"},
      {"measurement": "kinase still bound, per cent of control", "setting": "TLK2 (human)", "result": 100, "unit": "%"},
      {"measurement": "kinase still bound, per cent of control", "setting": "MARK2 (human)", "result": 50, "unit": "%"},
      {"measurement": "kinase still bound, per cent of control", "setting": "ERBB2 (human)", "result": 100, "unit": "%"},
      {"measurement": "kinase still bound, per cent of control", "setting": "PRPF4B (human)", "result": 20, "unit": "%"},
      {"measurement": "kinase still bound, per cent of control", "setting": "RIOK2 (human)", "result": 66, "unit": "%"},
      {"measurement": "kinase still bound, per cent of control", "setting": "DYRK2 (human)", "result": 37, "unit": "%"},
      {"measurement": "kinase still bound, per cent of control", "setting": "AXL (human)", "result": 65, "unit": "%"},
      {"measurement": "kinase still bound, per cent of control", "setting": "PRKAA1 (human)", "result": 68, "unit": "%"},
      {"measurement": "kinase still bound, per cent of control", "setting": "MAPK11 (human)", "result": 88, "unit": "%"},
      {"measurement": "kinase still bound, per cent of control", "setting": "LYN (human)", "result": 60, "unit": "%"},
      {"measurement": "kinase still bound, per cent of control", "setting": "PAK2 (human)", "result": 96, "unit": "%"},
      {"measurement": "kinase still bound, per cent of control", "setting": "RET (human)", "result": 39, "unit": "%"},
      {"measurement": "kinase still bound, per cent of control", "setting": "CDC42BPA (human)", "result": 68, "unit": "%"},
      {"measurement": "kinase still bound, per cent of control", "setting": "MAP3K11 (human)", "result": 81, "unit": "%"},
      {"measurement": "kinase still bound, per cent of control", "setting": "OXSR1 (human)", "result": 100, "unit": "%"},
      {"measurement": "kinase still bound, per cent of control", "setting": "FER (human)", "result": 100, "unit": "%"},
      {"measurement": "kinase still bound, per cent of control", "setting": "EPHB2 (human)", "result": 94, "unit": "%"},
      {"measurement": "kinase still bound, per cent of control", "setting": "CSNK1D (human)", "result": 81, "unit": "%"},
      {"measurement": "kinase still bound, per cent of control", "setting": "VRK2 (human)", "result": 87, "unit": "%"},
      {"measurement": "kinase still bound, per cent of control", "setting": "INSRR (human)", "result": 100, "unit": "%"},
      {"measurement": "kinase still bound, per cent of control", "setting": "NLK (human)", "result": 68, "unit": "%"},
      {"measurement": "kinase still bound, per cent of control", "setting": "STK33 (human)", "result": 67, "unit": "%"}
    ]}
  ]
}
